# Experimental data from patent US5250695A, “Use of specific counteranions to modify the solubility of tetrazolium salts” (Miles Inc., priority 1992, dated 1993).
# Assays:
# [1] = Solubility testing of tetrazolium salts in methanol and water (Table I); settings: for solubility in methanol (in words) / solubility in water (in words): discussion of Table I
# [2] = Impregnation of zwitterionic nylon fabric with tetrazolium salt and ATP; HPLC of methanol extract, extraction into aqueous impregnation solution (Example II); settings: 1 liter remaining after aqueous ATP impregnation
# Excerpt: The solution also contained some formazan which was not quantified.
# 4 L×0.08 moles/L=0.32 moles of tetrazolium salt impregnated into the membrane during first treatment.
# 1 L×0.006 moles/L=0.006 moles extracted during aqueous impregnation.
# [3] = cited from earlier work
# [4] = listed as DCT tetrafluoroborate
SMILES,"Solubility, Methanol [1] [m mol L]","Solubility, Water [1] [m mol L]",also measured
"COc1cc(-[n+]2nc(-c3ccc4c(c3)OCO4)nn2-c2nc(C(F)F)c(Cl)s2)cc(OC)c1OC [DCT BF4^-, 2-(4-difluoromethyl-5-chlorothiazol-2-yl)-3-(3,4,5-trimethoxyphenyl)-5-(3,4-methylenedioxyphenyl) tetrazolium]",< 16,< 0.5,"solubility in methanol (in words) [1, 4]: only marginally soluble; solubility in water (in words) [1, 4]: only marginally soluble"
"COc1ccc(-c2nn(-c3nc4c(cc(OC)c5ccccc54)s3)[n+](-c3cc(OC)c(OC)c(OC)c3)n2)cc1 [MTM BzSO3, 2-(5-methoxynaphtho[1,2-d]thiazol-2-yl)-3-(3,4,5-trimethoxyphenyl)-5-(4-methoxyphenyl) tetrazolium]",19,,solubility in methanol (in words) ([1]; listed as MTM benzenesulfonate): substantially greater than the nitrate
"COc1ccccc1-[n+]1nc(-c2ccc3c(c2)OCO3)nn1-c1nc(C(F)F)c(Cl)s1 [DCMT PeSO3^-, 2-(4-difluoromethyl-5-chlorothiazol-2-yl)-3-(2 methoxyphenyl)-5-(3,4-methylenedioxyphenyl) tetrazolium]",> 700,2.6,
"COc1ccc(-c2nn(-c3nc4c(cc(OC)c5ccccc54)s3)[n+](-c3cc(OC)c(OC)c(OC)c3)n2)cc1 [MTM NO3^-, 2-(5-methoxynaphtho[1,2-d]thiazol-2-yl)-3-(3,4,5-trimethoxyphenyl)-5-(4-methoxyphenyl) tetrazolium]",7.6,,
"O=[N+]([O-])c1ccc(-n2nc(-c3ccccc3)n[n+]2-c2ccc(I)cc2)cc1 [INT MeSO3^-, 2-(4-iodophenyl)-3-(4-nitrophenyl)-5-phenyl tetrazolium]",,35,
"COc1ccccc1-[n+]1nc(-c2ccc3c(c2)OCO3)nn1-c1nc(C(F)F)c(Cl)s1 [DCMT PrSO3^-, 2-(4-difluoromethyl-5-chlorothiazol-2-yl)-3-(2 methoxyphenyl)-5-(3,4-methylenedioxyphenyl) tetrazolium]",> 760,23,
"COc1ccccc1-[n+]1nc(-c2ccc3c(c2)OCO3)nn1-c1nc(C(F)F)c(Cl)s1 [DCMT BF4^-, 2-(4-difluoromethyl-5-chlorothiazol-2-yl)-3-(2 methoxyphenyl)-5-(3,4-methylenedioxyphenyl) tetrazolium]",12.9,2.7,
"COc1cc(-[n+]2nc(-c3ccc4c(c3)OCO4)nn2-c2nc(C(F)F)c(Cl)s2)cc(OC)c1OC [DCT BzSO3^-, 2-(4-difluoromethyl-5-chlorothiazol-2-yl)-3-(3,4,5 trimethoxyphenyl)-(5-(3,4-methylenedioxyphenyl)tetrazolium benzenesulfonate]",> 550,,tetrazolium salt extracted from the treated membrane into remaining aqueous solution [2]: 3 mM; solubility in methanol (in words) ([1]; listed as DCT benzenesulfonate): high methanol solubility
"COc1ccccc1-[n+]1nc(-c2ccc3c(c2)OCO3)nn1-c1nc(C(F)F)c(Cl)s1 [DCMT MeSO3^-, 2-(4-difluoromethyl-5-chlorothiazol-2-yl)-3-(2 methoxyphenyl)-5-(3,4-methylenedioxyphenyl) tetrazolium]",> 760,248,solubility in methanol (in words) [1]: greatly enhanced; solubility in water (in words) [1]: greatly enhanced
"COc1ccc(-c2nn(-c3nc4c(cc(OC)c5ccccc54)s3)[n+](-c3cc(OC)c(OC)c(OC)c3)n2)cc1 [MTM PrSO3^-, 2-(5-methoxynaphtho[1,2-d]thiazol-2-yl)-3-(3,4,5-trimethoxyphenyl)-5-(4-methoxyphenyl) tetrazolium]",100,,solubility in methanol (in words) ([1]; listed as MTM propanesulfonate): substantially increased
"COc1ccc(-c2nn(-c3nc4c(cc(OC)c5ccccc54)s3)[n+](-c3cc(OC)c(OC)c(OC)c3)n2)cc1 [MTM MeSO3^-, 2-(5-methoxynaphtho[1,2-d]thiazol-2-yl)-3-(3,4,5-trimethoxyphenyl)-5-(4-methoxyphenyl) tetrazolium]",48,,solubility in methanol (in words) ([1]; listed as MTM methanesulfonate): substantially increased
"COc1ccccc1-[n+]1nc(-c2ccc3c(c2)OCO3)nn1-c1nc(C(F)F)c(Cl)s1 [DCMT Br^-, 2-(4-difluoromethyl-5-chlorothiazol-2-yl)-3-(2 methoxyphenyl)-5-(3,4-methylenedioxyphenyl) tetrazolium]",24,< 1,
"COc1cc(-[n+]2nc(-c3ccc4c(c3)OCO4)nn2-c2nc(C(F)F)c(Cl)s2)cc(OC)c1OC [DCT MeSO3^-, 2-(4-difluoromethyl-5-chlorothiazol-2-yl)-3-(3,4,5-trimethoxyphenyl)-5-(3,4-methylenedioxyphenyl) tetrazolium]",> 500,73,solubility in methanol (in words) ([1]; listed as DCT methanesulfonate): highly soluble; solubility in water (in words) ([1]; listed as DCT methanesulfonate): highly soluble
"COc1ccccc1-[n+]1nc(-c2ccc3c(c2)OCO3)nn1-c1nc(C(F)F)c(Cl)s1 [DCMT BuSO3^-, 2-(4-difluoromethyl-5-chlorothiazol-2-yl)-3-(2 methoxyphenyl)-5-(3,4-methylenedioxyphenyl) tetrazolium]",> 700,15,
"CN1CC[C@]23c4c5ccc(OCc6ccccc6)c4O[C@H]2[C@@H](O)C=C[C@H]3[C@H]1C5 [benzylmorphine, reference compound]",,,"water solubility after conversion to alkyl sulphonic acid salt ([3]; U.S. Pat. No. 1,892,019, methane or ethanesulfonic acid): increased water solubility"
C=C1CC(C)C2C3Cc4ccc(O)cc4C2(CCN3CC2CCC2)C1 (stereo not drawn) [17-cyclobutylmethyl-3-hydroxy-862-methyl-6-methylene morphinane],,,"solubility on converting chloride salt to methanesulfonate ([3]; U.S. Pat. No. 4,334,071): enhancement of the solubility"
"O=[N+]([O-])c1ccc(-n2nc(-c3ccccc3)n[n+]2-c2ccc(I)cc2)cc1 [INT Cl^-, 2-(4-iodophenyl)-3-(4-nitrophenyl)-5-phenyl tetrazolium, reference compound]",,3,
"COc1cc(-[n+]2nc(-c3ccc4c(c3)OCO4)nn2-c2nc(C(F)F)c(Cl)s2)cc(OC)c1OC [DCT Br^-, 2-(4-difluoromethyl-5-chlorothiazol-2-yl)-3-(3,4,5-trimethoxyphenyl)-5-(3,4-methylenedioxyphenyl) tetrazolium]",10,< 1,solubility in methanol (in words) ([1]; listed as DCT bromide): only marginally soluble; solubility in water (in words) ([1]; listed as DCT bromide): only marginally soluble
"COc1cc(-[n+]2nc(-c3ccc4c(c3)OCO4)nn2-c2nc(C(F)F)c(Cl)s2)cc(OC)c1OC [DCT NO3^-, 2-(4-difluoromethyl-5-chlorothiazol-2-yl)-3-(3,4,5-trimethoxyphenyl)-5-(3,4-methylenedioxyphenyl) tetrazolium]",22,2,solubility in methanol (in words) ([1]; listed as DCT nitrate): only marginally soluble; solubility in water (in words) ([1]; listed as DCT nitrate): only marginally soluble
"COc1cc(-[n+]2nc(-c3ccc4c(c3)OCO4)nn2-c2nc(C(F)F)c(Cl)s2)cc(OC)c1OC [DCT PrSO3^-, 2-(4-difluoromethyl-5-chlorothiazol-2-yl)-3-(3,4,5-trimethoxyphenyl)-5-(3,4-methylenedioxyphenyl) tetrazolium]",> 650,16,
"COc1cc(-[n+]2nc(-c3ccc4c(c3)OCO4)nn2-c2nc(C(F)F)c(Cl)s2)cc(OC)c1OC [DCT EtSO3^-, 2-(4-difluoromethyl-5-chlorothiazol-2-yl)-3-(3,4,5-trimethoxyphenyl)-5-(3,4-methylenedioxyphenyl) tetrazolium]",> 600,26,
